Measurements taken from patent publication US4008219A, “4-Benzazonine derivatives and process for preparation thereof” (Nihon Iyakuhin Kogyo Co., Ltd., priority 1973, dated 1977).
Structures can show the parent of a compound that is named as a salt.

Experiments:
mice of the ddN-series [1] = assay: Analgesic test, Pressure Stimulus Method; format: in vivo, mouse; conditions: hypodermic injection, comparative value, pentazocine 1.0
Description: (§1) Results of comparative tests where the medicinal effects of compounds of this invention were compared with those of known compounds such as pentazocine and codeine phosphate by employing mice and guinea pigs as the test animals are shown in the following Tables I and II.
Pressure Stimulus Method^3)
R (hypodermic injection)
(§2) Tested Animal: mice of the ddN-series, .male., 20 ± 1 experimental
(§3) Conditions: temperature of 24 ± 1° C., relative humidity of 65
^3) A. F. Green, P. A. Yound and E. I. Godfrey; British Journal of
Pharmacology and Chemotherapy, 6, 572 (1951)

Acute Toxicity = conditions: in vivo; mouse, intravenous injection
Description: as §2, §3

mice of the ddN-series [2] = assay: Analgesic test, Chemical Stimulus Method (Writhing Method); format: in vivo, mouse; set-up: scale not given here; conditions: interabdominal injection, comparative value, scale not given
Description: as §1
Chemical Stimulus Method^1)
(interabdominal injection)
as §2, §3
^1) R. Koster, M. Anderson and E. J. De Beer, Federation Proceedings, […]

mice of the ddN-series [3] = assay: Analgesic test, Heat Stimulus Method (Hot Plate Method); format: in vivo, mouse; set-up: reference not given here; conditions: hypodermic injection, comparative value, scale not given
Description: as §1
Heat Stimulus Method^2)
as §2, §3
^2) G. Woolfe and A. D. Mac Donald; Journal of Pharmacology and […]

[4] = Hygroscopicity of the salt; format: physicochemical; conditions: crystalline salt, cis-form
guinea pigs [5] = assay: Antitussive effect, Mechanical Stimulus Method; format: in vivo, guinea pig; conditions: for ED50: Cavia porcellus, swine hairs inserted into the trachea; for Effect Ratio to Codeine Phosphate, Mechanical Stimulus Method: codeine phosphate = 100
Text: as §1
(§4) Comparison of Antitusive Effects
Mechanical Stimulus Method^1)
1) Takagi et al modification [Journal of the Pharmaceutical Society of
Japan, 80, 1497 (1960)] of the test method of H. Konzett and E. Rothlin
[Experientia, 10, 472 (1954)], in which urethane was hypodermically
injected (15 mg/Kg) into guinea pigs and swine hairs were inserted into
the trachea to impart stimulus.

guinea pigs [6] = assay: Antitussive effect, Chemical Stimulus Method (SO2 gas); format: in vivo, guinea pig; conditions: for ED50: Cavia porcellus, sc, 0.5 h, read-out: ED50, Chemical Stimulus Method (antitussive); for Effect Ratio to Codeine Phosphate, Chemical Stimulus Method: codeine phosphate = 100
Text: as §1, §4
2) Takagi et al modification [Journal of Pharmaceutical Society of Japan,
80, 1497 (1960)] of the test method of H. Friebel, C. Reichle and A. V.
Gravenitz [Archiv Fur experimentalle Phathologie und Pharmakologie,
Naunyn-Schmiede-berg's, 224,384 (1955)], in which the test compound was
hypodermically injected into guinea pigs, 30 minutes after the injection
the quinea pigs were put into a desiccator filled with SO2 gas and
kept in the desiccator for 1 minute, then the guinea pigs were put into
another vessel and the degree of coughing was examined.

[7] = guinea pigs, hypodermic injection, SO2 gas, 1 minute, 30 minutes after injection

Row | SMILES | Pressure Stimulus Method (mice of the ddN-series [1]) | LD50 (Acute Toxicity) | Chemical Stimulus Method (Writhing Method) (mice of the ddN-series [2]) | Heat Stimulus Method (Hot Plate Method) (mice of the ddN-series [3]) | also measured
1 | CC(C)=CCN1CCC2(C)c3cc(O)ccc3CC1C2C (stereo not shown) [pentazocine, 1,2,3,4,5,6-hexahydro-3-(3-methyl-2-butenyl)-6, 11-dimethyl-8-hydroxy-2,6-methano-3-benzazonine, reference compound] | 1.0 | 25 mg/kg |  |  | 
2 | c1ccc(CCN2CCC3CC(Cc4ccccc43)C2)cc1 (stereo not shown) [R=H, R1=H, R2=H, CH2R3=drawing 41, R4=H] | 2.0 | 35 mg/kg | 0.8 | 5.0 | 
3 | COc1ccc2c(c1)C1(C)CCN(CCc3ccccc3)CC(C2)C1 (stereo not shown) [R=CH3O, R1=CH3, R2=H, CH2R3=drawing 44, R4=H] |  | 48 mg/kg | 1.5 | 2.0 | 
4 | CC(C)CCN1CCC2(C)c3cc(O)ccc3CC(C1)C2C (stereo not shown) [Example 89] |  |  |  |  | hygroscopicity [4]: being hygro-
5 | c1ccc(CN2CCC3CC(Cc4ccccc43)C2)cc1 (stereo not shown) [R=H, R1=H, R2=H, CH2R3=drawing 42, R4=H] |  | 120 mg/kg | 1.0 | 3.0 | 
6 | CN1CCC2(C)CC(C1)C(O)c1ccccc12 (stereo not shown) [R=H, R1=CH3, R2=H, CH2R3=CH3, R4=OH, 1,4-dimethyl-2,3,4,5,6,7-hexahydro-1,6-methano-1H-4-benzazonin-7-ol] | 1.2 | 70 mg/kg | 0.7 | 1.4 | ED50 (guinea pigs [5]): 4.42 mg/kg; Effect Ratio to Codeine Phosphate, Mechanical Stimulus Method (guinea pigs [5]): 326.9; ED50 (guinea pigs [6]; [7]): 1.64 mg/kg; Effect Ratio to Codeine Phosphate, Chemical Stimulus Method (guinea pigs [6]; guinea pigs, SO2 gas): 800.7
7 | COc1ccc2c(c1)C1(C)CCN(C)CC(C1)C2O (stereo not shown) [R=CH3O, R1=CH3, R2=H, CH2R3=CH3, R4=OH, 1,4-dimethyl-10-methoxy-2,3,4,5,6,7-hexahydro-1,6-methano-1H-4-benzazonin-7-ol] | 1.2 | 72 mg/kg | 1.5 | 5.0 | ED50 (guinea pigs [5]): 13.7 mg/kg; Effect Ratio to Codeine Phosphate, Mechanical Stimulus Method (guinea pigs [5]): 105.5; ED50 (guinea pigs [6]; [7]): 6.06 mg/kg; Effect Ratio to Codeine Phosphate, Chemical Stimulus Method (guinea pigs [6]; guinea pigs, SO2 gas): 218.8
8 | CN1CCC2(C)CC(Cc3ccc(O)cc32)C1 (stereo not shown) [R=HO, R1=CH3, R2=H, CH2R3=CH3, R4=H, 1,4-dimethyl-10-hydroxy-2,3,4,5,6,7-hexahydro-1,6-methano-1H-4-benzazonine] |  | 75 mg/kg | 1.5 | 2.0 | 
9 | COc1ccc2c(c1)C1(C)CCN(C)CC(C2)C1 (stereo not shown) [R=CH3O, R1=CH3, R2=H, CH2R3=CH3, R4=H] |  | 120 mg/kg | 0.8 | 2.0 | 
10 | CCN1CCC2(C)CC(Cc3ccc(OC)cc32)C1 (stereo not shown) [R=CH3O, R1=CH3, R2=H, CH2R3=CH2CH3, R4=H] |  | 120 mg/kg | 0.8 | 2.0 | 
11 | CC(C)=CCN1CCC2(C)CC(Cc3ccc(O)cc32)C1 (stereo not shown) [R=HO, R1=CH3, R2=H, CH2R3=drawing 43, R4=H] |  | 40 mg/kg | 1.0 | 1.5 | 
12 | CN1CCC2CC(C1)C(O)c1ccccc12 (stereo not shown) [R=H, R1=H, R2=H, CH2R3=CH3, R4=OH, 4-methyl-2,3,4,5,6,7-hexahydro-1,6-methano-1H-4-benzazonin-7-ol] |  |  |  |  | ED50 (guinea pigs [5]): 9.21 mg/kg; Effect Ratio to Codeine Phosphate, Mechanical Stimulus Method (guinea pigs [5]): 157.1; ED50 (guinea pigs [6]; [7]): 6.58 mg/kg; Effect Ratio to Codeine Phosphate, Chemical Stimulus Method (guinea pigs [6]; guinea pigs, SO2 gas): 201.4
13 | CC1C2Cc3ccc(O)cc3C1(C)CCN(CCc1ccccc1)C2 (stereo not shown) [Example 87] |  |  |  |  | hygroscopicity [4]: being hygro-
14 | C=CCN1CCC2CC(Cc3ccccc32)C1 (stereo not shown) [R=H, R1=H, R2=H, CH2R3=CH2CHCH2, R4=H, 4-allyl-2,3,4,5,6,7-hexahydro-1,6-methano-1H-4-benzazonine] | 1.5 | 45 mg/kg | 1.4 | 5.0 | ED50 (guinea pigs [5]): 7.42 mg/kg; Effect Ratio to Codeine Phosphate, Mechanical Stimulus Method (guinea pigs [5]): 195.0; ED50 (guinea pigs [6]; [7]): 12.7 mg/kg; Effect Ratio to Codeine Phosphate, Chemical Stimulus Method (guinea pigs [6]; guinea pigs, SO2 gas): 104.7
15 | CC1C2Cc3ccc(O)cc3C1(C)CCN(C)C2 (stereo not shown) [Example 90] |  |  |  |  | hygroscopicity [4]: being hygro-
16 | CCN1CCC2(C)c3cc(OC)ccc3CC(C1)C2C (stereo not shown) |  | 100 mg/kg | 0.8 | 2.0 | 
17 | CC1C2CN(C)CCC1(C)c1ccccc1C2O (stereo not shown) [Example 15] |  |  |  |  | hygroscopicity [4]: hygroscopic
18 | CC(C)=CCN1CCC2(C)CC(C1)C(O)c1ccccc12 (stereo not shown) [R=H, R1=CH3, R2=H, CH2R3=drawing 38, R4=OH] | 1.6 | 25 mg/kg | 1.5 | 1.5 | 

Row | SMILES | Pressure Stimulus Method (mice of the ddN-series [1]) | LD50 (Acute Toxicity) | Chemical Stimulus Method (Writhing Method) (mice of the ddN-series [2]) | Heat Stimulus Method (Hot Plate Method) (mice of the ddN-series [3]) | also measured
19 | CN1CCC2CC(Cc3ccccc32)C1 (stereo not shown) [R=H, R1=H, R2=H, CH2R3=CH3, R4=H, 4-methyl-2,3,4,5,6,7-hexahydro-1,6-methano-1H-4-benzazonine] |  | 20 mg/kg | 2.5 | 0.6 | 
20 | CC1C2CN(C)CCC1(C)c1ccccc1C2O (stereo not shown) [R=H, R1=CH3, R2=CH3, CH2R3=CH3, R4=OH] | 1.5 | 30 mg/kg | 1.6 | 2.0 | 
21 | COc1ccc2c3c1O[C@H]1[C@@H](O)C=C[C@H]4[C@@H](C2)N(C)CC[C@@]341 [codeine phosphate, reference compound] |  |  |  |  | ED50 (guinea pigs [5]): 14.5 mg/kg; ED50 (guinea pigs [6]; [7]): 13.3 mg/kg
22 | CC(C)=CCN1CCC2CC(Cc3ccccc32)C1 (stereo not shown) [R=H, R1=H, R2=H, CH2R3=drawing 40, R4=H] | 1.4 | 65 mg/kg | 1.0 | 1.5 | 
23 | CC(C)=CCN1CCC2CC(C1)C(O)c1ccccc12 (stereo not shown) [R=H, R1=H, R2=H, CH2R3=drawing 36, R4=OH] | 1.4 | 60 mg/kg | 1.2 | 1.2 | 
24 | CCC12CCN(C)CC(Cc3ccc(O)cc31)C2C (stereo not shown) [Example 22] |  |  |  |  | hygroscopicity [4]: hygroscopic
25 | CCC12CCN(C)CC(C(O)c3ccc(OC)cc31)C2C (stereo not shown) [Example 10, 4,12-dimethyl-1-ethyl-10-methoxy-2,3,4,5,6,7-hexahydro-1,6-methano-1H-4-benzazonin-7-ol] |  |  |  |  | hygroscopicity [4]: very hygroscopic
26 | COc1ccc2c3c1O[C@H]1[C@@H](O)CC[C@H]4[C@@H](C2)N(C)CC[C@@]341 [dihydrocodeine phosphate, reference compound] |  |  |  |  | ED50 (guinea pigs [5]): 4.65 mg/kg; ED50 (guinea pigs [6]): 2.65 mg/kg
27 | CC(C)CCN1CCC2(C)CC(Cc3ccc(O)cc32)C1 (stereo not shown) [R=HO, R1=CH3, R2=H, CH2R3=drawing 45, R4=H] |  | 40 mg/kg | 1.0 | 1.5 | 
28 | CC1C2Cc3ccccc3C1(C)CCN(C)C2 (stereo not shown) [Example 23] |  |  |  |  | hygroscopicity [4]: hygroscopic
29 | CC1C2Cc3ccc(O)cc3C1(C)CCN(C)C2 (stereo not shown) [Example 20] |  |  |  |  | hygroscopicity [4]: hygroscopic
30 | COc1ccc2c(c1)C1(C)CCN(CCc3ccccc3)CC(C1)C2O (stereo not shown) | 1.8 | 45 mg/kg | 1.6 | 2.2 | 
31 | OC1c2ccccc2C2CCN(CCc3ccccc3)CC1C2 (stereo not shown) [Example 59, hydrobromide] |  |  |  |  | solubility in water (Solubility in water): water-soluble
32 | C=CCN1CCC2(C)CC(C1)C(O)c1ccc(OC)cc12 (stereo not shown) |  | 61 mg/kg | 1.4 | 1.6 | 
33 | COc1ccc2c(c1)C1(C)CCN(C)CC(C2O)C1C (stereo not shown) [Example 12] |  |  |  |  | hygroscopicity [4]: hygroscopic
34 | CCN1CCC2(C)CC(Cc3ccc(O)cc32)C1 (stereo not shown) [R=HO, R1=CH3, R2=H, CH2R3=CH2CH3, R4=H] |  | 80 mg/kg | 1.5 | 2.0 | 
35 | C=CCN1CCC2(C)CC(C1)C(O)c1ccccc12 (stereo not shown) [R=H, R1=CH3, R2=H, CH2R3=CH2CHCH2, R4=OH] | 2.0 | 55 mg/kg | 1.8 | 1.5 | 
36 | OC1c2ccccc2C2CCN(CCc3ccccc3)CC1C2 (stereo not shown) [R=H, R1=H, R2=H, CH2R3=drawing 37, R4=OH] | 2.0 | 45 mg/kg | 1.8 | 4.5 | 
